# pEC50, pIC50: −log10 of the molar value. Like-named read-outs stand apart in the source and are kept apart here.
# Key:
# TNFα = assay: cells; type: cell-based, human; settings: Homo sapiens, Monocyte, read-out: EC50 TNF
# IRAK4 enzyme = IRAK4 enzyme (Homo sapiens (Human), UniProt Q9NWZ3); assay: biochemical; type: biochemical
# [1] = LPS-stimulated human monocytes, TNFα content
# [2] = IRAK4 enzyme, TR-FRET, 500 μM ATP
# IRAK4 enzyme, sequence (Q9NWZ3 whole entry): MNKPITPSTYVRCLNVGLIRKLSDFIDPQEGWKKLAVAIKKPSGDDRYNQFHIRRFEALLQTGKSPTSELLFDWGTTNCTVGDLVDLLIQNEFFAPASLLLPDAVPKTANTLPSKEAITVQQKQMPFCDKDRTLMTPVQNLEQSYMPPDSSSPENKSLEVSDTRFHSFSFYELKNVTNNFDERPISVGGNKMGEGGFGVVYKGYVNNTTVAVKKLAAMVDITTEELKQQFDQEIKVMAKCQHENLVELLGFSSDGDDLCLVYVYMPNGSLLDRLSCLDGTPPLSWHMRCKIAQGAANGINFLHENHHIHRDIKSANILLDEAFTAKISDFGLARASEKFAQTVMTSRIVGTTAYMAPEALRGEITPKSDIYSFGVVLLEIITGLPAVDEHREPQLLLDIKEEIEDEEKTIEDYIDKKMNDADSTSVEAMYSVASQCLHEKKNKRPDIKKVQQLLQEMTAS
Compound,pEC50 (TNFα; [1]),pIC50 (IRAK4 enzyme; [2]),pEC50 (TNFα),pIC50 (IRAK4 enzyme)
"Cc1nnc(N[C@H]2CC[C@H](Nc3cc(-c4ccc5cc(C#N)cnn45)ncc3C(=O)NC[C@@H](F)C(C)(C)O)CC2)o1 [Example 269, 6-(3-cyanopyrrolo[1,2-b]pyridazin-7-yl)-N-((R)-2-fluoro-3-hydroxy-3-methylbutyl)-4-(((1R,4R)-4-((5-methyl-1,3,4-oxadiazol-2-yl)amino)cyclohexyl)amino)nicotinamide]",7.23,9.00,,
"COC(=O)NC12CCC(Nc3cc(-c4ccc5cc(C#N)cnn45)ncc3C(=O)NC3CCC(NC(=O)N4CCOCC4)CC3)(CC1)CC2 (stereo not drawn) [Example 270, methyl (4-((2-(3-cyano-pyrrolo[1,2-b]pyridazin-7-yl)-5-((4-(morpholine-4-carboxamido)cyclohexyl)carbamoyl)pyridin-4-yl)amino)bicyclo[2.2.2]octan-1-yl)carbamate]",7.31,9.00,,
"COC(=O)NC12CCC(Nc3cc(-c4ccc5cc(C#N)cnn45)ncc3C(=O)NC3CCC(NC(=O)C4CC4)CC3)(CC1)CC2 (stereo not drawn) [Example 271, methyl (4-((2-(3-cyano-pyrrolo[1,2-b]pyridazin-7-yl)-5-((4-(cyclopropane-carboxamido)cyclohexyl)carbamoyl)pyridin-4-yl)amino)bicyclo[2.2.2]octan-1-yl)carbamate]",7.42,9.00,,
"CN(C)C(=O)NC12CCC(Nc3cc(-c4ccc5cc(C#N)cnn45)ncc3C(=O)NC[C@@H](F)C(C)(C)O)(CC1)CC2 [Example 272, (R)-6-(3-cyanopyrrolo[1,2-b]pyridazin-7-yl)-4-((4-(3,3-dimethylureido)bicyclo[2.2.2]octan-1-yl)amino)-N-(2-fluoro-3-hydroxy-3-methylbutyl)nicotinamide]",7.64,9.00,,
"CC(C)(O)C1CCC(Nc2cc(-c3ccc4cc(C#N)cnn34)ncc2C(=O)NC[C@@H](F)C(C)(C)O)CC1 (stereo partly drawn) [Example 273, 6-(3-cyanopyrrolo[1,2-b]pyridazin-7-yl)-N-((R)-2-fluoro-3-hydroxy-3-methylbutyl)-4-(((1r,4R)-4-(2-hydroxypropan-2-yl)cyclohexyl)amino) nicotinamide]",7.66,8.70,,
"CNC(=O)c1cnc(-c2ccc3cc(C#N)cnn23)cc1N[C@H]1CC[C@H](NC(=O)OC)CC1 [Example 274, methyl ((1r,4r)-4-((2-(3-cyanopyrrolo[1,2-b]pyridazin-7-yl)-5-(methylcarbamoyl)pyridin-4-yl)amino)cyclohexyl)carbamate]",6.84,9.00,,
"CNC(=O)c1cnc(-c2ccc3cc(C#N)cnn23)cc1NC1CCC(NC(=O)C(F)(F)F)CC1 (stereo not drawn) [Example 275, 6-(3-cyanopyrrolo[1,2-b]pyridazin-7-yl)-N-methyl-4-(((1r,4r)-4-(2,2,2-trifluoroacetamido)cyclohexyl)amino) nicotinamide]",6.81,8.52,,
"CNC(=O)c1cnc(-c2ccc3cc(C#N)cnn23)cc1N[C@H]1CC[C@H](NC(C)=O)CC1 [Example 276, 4-(((1r,4r)-4-acetamidocyclohexyl)amino)-6-(3-cyano-pyrrolo[1,2-b]pyridazin-7-yl)-N-methylnicotinamide]",6.84,8.52,,
"CC(=O)NC12CC(Nc3cc(-c4ccc5cc(C#N)cnn45)ncc3C(=O)NCC(F)(F)F)(C1)C2 [Example 277, 4-((3-acetamido-bicyclo[1.1.1]pentan-1-yl)amino)-6-(3-cyano-pyrrolo[1,2-b]pyridazin-7-yl)-N-(2,2,2-trifluoroethyl) nicotinamide]",6.42,8.30,,
"CC(=O)NC12CC(Nc3cc(-c4ccc5cc(C#N)cnn45)ncc3C(=O)NCC(F)F)(C1)C2 [Example 278, 4-((3-acetamido-bicyclo[1.1.1]pentan-1-yl)amino)-6-(3-cyano-pyrrolo[1,2-b]pyridazin-7-yl)-N-(2,2-difluoroethyl) nicotinamide]",6.78,8.52,,
"CC(C)(O)[C@H](F)CNC(=O)c1cnc(-c2ccc3cc(C#N)cnn23)cc1NC12CCC(NC(=O)OC3COC3)(CC1)CC2 [Example 279, (R)-oxetan-3-yl (4-((2-(3-cyanopyrrolo[1,2-b]pyridazin-7-yl)-5-((2-fluoro-3-hydroxy-3-methylbutyl)carbamoyl)pyridin-4-yl)amino)bicyclo[2.2.2]octan-1-yl)carbamate]",7.54,8.70,,
"CC(C)(O)[C@H](F)CNC(=O)c1cnc(-c2ccc3cc(C#N)cnn23)cc1N[C@H]1CC[C@H](NC(=O)OC2COC2)CC1 [Example 280, oxetan-3-yl ((1R,4r)-4-((2-(3-cyanopyrrolo[1,2-b]pyridazin-7-yl)-5-(((R)-2-fluoro-3-hydroxy-3-methylbutyl)carbamoyl)pyridin-4-yl)amino)cyclo-hexyl)carbamate]",7.26,9.00,,
"CC(C)(O)[C@H](F)CNC(=O)c1cnc(-c2ccc3cc(C#N)cnn23)cc1NC12CCC(NC(=O)C3CC3)(CC1)CC2 [Example 281, (R)-6-(3-cyanopyrrolo[1,2-b]pyridazin-7-yl)-4-((4-(cyclopropanecarboxamido)bicyclo[2.2.2]octan-1-yl)amino)-N-(2-fluoro-3-hydroxy-3-methylbutyl) nicotinamide]",7.43,9.00,,
"CC1(C(=O)N[C@H]2CC[C@H](Nc3cc(-c4ccc5cc(C#N)cnn45)ncc3C(=O)NC[C@@H](F)C(C)(C)O)CC2)COC1 [Example 282, 6-(3-cyanopyrrolo[1,2-b]pyridazin-7-yl)-N-((R)-2-fluoro-3-hydroxy-3-methylbutyl)-4-(((1r,4R)-4-(3-methyloxetane-3-carboxamido)cyclohexyl)amino)nicotinamide]",,,6.44,8.70
"[2H]C([2H])([2H])OC(=O)NC12CCC(Nc3cc(-c4ccc5cc(C#N)cnn45)ncc3C(=O)NC[C@@H](F)C(C)(C)O)(CC1)CC2 [Example 283, methyl-d3 (R)-(4-((2-(3-cyanopyrrolo[1,2-b]pyridazin-7-yl)-5-((2-fluoro-3-hydroxy-3-methylbutyl)carbamoyl)pyridin-4-yl)amino)bicyclo[2.2.2]octan-1-yl)carbamate]",7.85,9.00,,
"COCC(=O)N[C@H]1CC[C@H](Nc2cc(-c3ccc4cc(C#N)cnn34)ncc2C(=O)NC[C@@H](F)C(C)(C)O)CC1 [Example 284, 6-(3-cyanopyrrolo[1,2-b]pyridazin-7-yl)-N-((R)-2-fluoro-3-hydroxy-3-methylbutyl)-4-(((1r,4R)-4-(2-methoxyacetamido)cyclohexyl)amino) nicotinamide]",7.06,9.00,,
"CN(C)S(=O)(=O)N[C@H]1CC[C@H](Nc2cc(-c3ccc4cc(C#N)cnn34)ncc2C(=O)NC[C@@H](F)C(C)(C)O)CC1 [Example 285, 6-(3-cyanopyrrolo[1,2-b]pyridazin-7-yl)-4-(((1r,4R)-4-((N,N-dimethylsulfamoyl)amino)cyclohexyl)amino)-N-((R)-2-fluoro-3-hydroxy-3-methylbutyl)nicotinamide]",6.78,8.70,,
"CN(C)C(=O)N[C@H]1CC[C@H](Nc2cc(-c3ccc4cc(C#N)cnn34)ncc2C(=O)NC[C@@H](F)C(C)(C)O)CC1 [Example 286, 6-(3-cyanopyrrolo[1,2-b]pyridazin-7-yl)-4-(((1r,4R)-4-(3,3-dimethylureido)cyclohexyl)amino)-N-((R)-2-fluoro-3-hydroxy-3-methylbutyl)nicotinamide]",7.39,9.00,,
"CC(C)(O)[C@H](F)CNC(=O)c1cnc(-c2ccc3cc(C#N)cnn23)cc1N[C@H]1CC[C@H](NC(=O)OCC2CC2)CC1 [Example 287, cyclopropylmethyl ((1R,4r)-4-((2-(3-cyanopyrrolo[1,2-b]pyridazin-7-yl)-5-(((R)-2-fluoro-3-hydroxy-3-methylbutyl)carbamoyl)pyridin-4-yl)amino)cyclohexyl)carbamate]",6.83,9.00,,
"CC(C)(O)[C@H](F)CNC(=O)c1cnc(-c2ccc3cc(C#N)cnn23)cc1N[C@H]1CC[C@H](NC(=O)OC2CCC2)CC1 [Example 288, cyclobutyl ((1R,4r)-4-((2-(3-cyanopyrrolo[1,2-b]pyridazin-7-yl)-5-(((R)-2-fluoro-3-hydroxy-3-methylbutyl)carbamoyl)pyridin-4-yl)amino)cyclohexyl)carbamate]",7.27,9.00,,
"CC(C)(O)[C@H](F)CNC(=O)c1cnc(-c2ccc3cc(C#N)cnn23)cc1N[C@H]1CC[C@H](NCC(F)(F)F)CC1 [Example 289, 6-(3-cyanopyrrolo[1,2-b]pyridazin-7-yl)-N-((R)-2-fluoro-3-hydroxy-3-methylbutyl)-4-(((1r,4R)-4-((2,2,2-trifluoroethyl)amino)cyclohexyl)amino)nicotinamide]",,,7.18,9.00
"CC(C)COC(=O)N[C@H]1CC[C@H](Nc2cc(-c3ccc4cc(C#N)cnn34)ncc2C(=O)NC[C@@H](F)C(C)(C)O)CC1 [Example 290, isobutyl ((1R,4r)-4-((2-(3-cyanopyrrolo[1,2-b]pyridazin-7-yl)-5-(((R)-2-fluoro-3-hydroxy-3-methylbutyl)carbamoyl)pyridin-4-yl)amino)cyclohexyl)carbamate]",6.92,9.00,,
"CC(C)OC(=O)N[C@H]1CC[C@H](Nc2cc(-c3ccc4cc(C#N)cnn34)ncc2C(=O)NC[C@@H](F)C(C)(C)O)CC1 [Example 291, isopropyl ((1R,4r)-4-((2-(3-cyanopyrrolo[1,2-b]pyridazin-7-yl)-5-(((R)-2-fluoro-3-hydroxy-3-methylbutyl)carbamoyl)pyridin-4-yl)amino)cyclohexyl)carbamate]",7.05,8.70,,
"CCOC(=O)N[C@H]1CC[C@H](Nc2cc(-c3ccc4cc(C#N)cnn34)ncc2C(=O)NC[C@@H](F)C(C)(C)O)CC1 [Example 292, ethyl ((1R,4r)-4-((2-(3-cyanopyrrolo[1,2-b]pyridazin-7-yl)-5-(((R)-2-fluoro-3-hydroxy-3-methylbutyl)carbamoyl)pyridin-4-yl)amino)cyclohexyl)carbamate]",7.43,9.00,,
